Assay results taken from US11673876B2, “Substituted aminobenzyl heteroaryl compounds as EGFR and/or PI3K inhibitors” (Mekanistic Therapeutics LLC, priority 2020, dated 2023).

Experiments:
[1] = Metabolic stability in mouse liver microsomes; assay type: in vitro ADME
Method: Working solution: 5 μL of compound and control stock solution (10 mM in dimethyl sulfoxide (DMSO)) were diluted with 495 μL of acetonitrile (ACN) (intermediate solution concentration: 100 μM, 99% ACN)
NADPH Cofactor Preparation: NADPH powder: β-Nicotinamide adenine dinucleotide phosphate reduced form, tetrasodium salt; NADPH·4Na. The appropriate amount of NADPH powder was weighed and diluted into a 10 mM MgCl2 solution (working solution concentration: 10 unit/mL; final concentration in reaction system: 1 unit/mL)
Liver Microsomes Preparation: The appropriate concentrations of microsome working solutions were prepared in 100 mM potassium phosphate buffer. Cold (4° C.) acetonitrile (ACN) containing 200 ng/mL tolbutamide and 200 ng/mL labetalol as internal standards (1S) was used as the stop solution
Assay Procedure: Pre-warm empty ‘Incubation’ plates T60 and NCF60 for 10 minutes. Dilute liver microsomes to 0.56 mg/mL in 100 mM phosphate buffer. Transfer 445 μL microsome working solutions (0.56 mg/mL) into pre-warmed ‘Incubation’ plates T60 and NCF60, Then pre-incubate ‘Incubation’ plates T60 and NCF60 for 10 min at 37° C. with constant shaking. Transfer 54 μL liver microsomes to blank plate, then add 6 μL NAPDH cofactor to blank plate, and then add 180 μL quenching solution to blank plate. Add 5 μL compound working solution (100 μM) into ‘incubation’ plates (T60 and NCF60) containing microsomes and mix 3 times thoroughly.
For the NCF60 plate, add 50 μL of buffer and mix 3 times thoroughly. Start timing; plate will be incubated at 37° C. for 60 min while shaking. In ‘Quenching’ plate T0, add 180 μL quenching solution and 6 μL NAPDH cofactor. Ensure the plate is chilled to prevent evaporation. For the T60 plate, mix 3 times thoroughly, and immediately remove 54 μL mixture for the 0-min time point to ‘Quenching’ plate. Then add 44 μL NAPDH cofactor to incubation plate (T60). Start timing; plate will be incubated at 37° C. for 60 min while shaking. At 5, 10, 20, 30, and 60 min, add 180 μL quenching solution to ‘Quenching’ plates, mix once, and serially transfer 60 μL sample from T60 plate per time point to ‘Quenching’ plates. For NCF60: mix once, and transfer 60 μL sample from the NCF60 incubation to ‘Quenching’ plate containing quenching solution at the 60-min time point. All sampling plates are shaken for 10 min, then centrifuged at 4000 rpm for 20 minutes at 4° C. Transfer 80 μL supernatant into 240 μL HPLC water, and mix by plate shaker for 10 min. Each bioanalysis plate was sealed and shaken for 10 minutes prior to LC-MS/MS analysis.
The equation of first order kinetics was used to calculate T½ and CLint(mic) (μL/min/mg). Equation of first order kinetics: […]
The biological stability of the compounds of the disclosure can be measured by determining its ½ life in the presence microsomes. Presented in Table 5, is the ½ life of selected compounds of the disclosure in the presence of human liver microsomes (HLM) or mouse liver microsomes (MLM) as described above. In Table 5, ½ life is presented as “++++” (value is greater than 60 minutes), “+++” (value is greater than 30 minutes and less than or equal to 60 minutes), “++” (value is greater than 15 minutes and less than or equal to 30 minutes) and “+” (value is 15 minutes or less).

[2] = target: DNA-PK (Homo sapiens (Human), UniProt P78527); assay: Z'-LYTE / Adapta kinase assay, DNA-PK; assay type: biochemical; conditions: for inhibition at 0.1 µM: read-out: DNA-PK % Inh. @ 100 nM
Method in brief: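 Z'-LYTE FRET-peptide phosphorylation read as coumarin/fluorescein emission ratio (400 nm excitation); Adapta immunoassay detects ADP formation. 60-min kinase reaction, 60-min development, room temperature.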

Compound	½ life minutes (MLM) [1]	IC50 [2]	inhibition at 0.1 µM [2]	DNA-PK % Inh. @ 100 nM ([2]; 100 nM)
CS(=O)(=O)Nc1cc(-c2ccc3ncnc(Nc4ccc(F)c(Cl)c4)c3c2)cnc1Cl [Comparative Compound 2, reference compound]	++++ (value is greater than 60 minutes)	< 2 nM	> 90%	
CS(=O)(=O)Nc1cncc(-c2ccc3ncnc(NCc4ccccc4)c3c2)c1 [Comparative Compound 3, reference compound]	+ (value is 15 minutes or less)			**** (value is greater than 90%)
CC(Nc1c(C#N)cnc2ccc(-c3cnc(N)nc3)cc12)c1ccccc1 (stereo not shown) [Compound 53, 6-(2-aminopyrimidin-5-yl)-4-(1-phenylethylamino) quinoline-3-carbonitrile]	+++ (value is greater than 30 minutes and less than or equal to 60 minutes)	20 to 200 nM	10 to 80%	
C[C@@H](Nc1ncnc2ccc(-c3cnc(Cl)c(NS(C)(=O)=O)c3)cc12)c1ccccc1 [Compound 2R, N-(2-chloro-5-(4-((1R-phenylethyl)amino)quinazolin-6-yl)pyridin-3-yl)methanesulfonamide]	++++ (value is greater than 60 minutes)	2 to 20 nM	> 90%	
CC(Nc1c(C#N)cnc2ccc(-c3cnc4[nH]ncc4c3)cc12)c1ccccc1 (stereo not shown) [Compound 54, 4-(1-phenylethylamino)-6-(1H-pyrazolo[3,4-b]pyridin-5-yl)quinoline-3-carbonitrile]	+ (value is 15 minutes or less)	2 to 20 nM	80 to 90%	
CS(=O)(=O)Nc1cc(-c2ccc3ncnc(NCc4ccccc4)c3c2)cnc1Cl [Comparative Compound 1, N-[5-[4-(benzylamino)quinazolin-6-yl]-2-chloro-3-pyridyl]methanesulfonamide, reference compound]	++++ (value is greater than 60 minutes)	< 2 nM	> 90%	
C[C@@H](Nc1c(C#N)cnc2ccc(-c3cnc(N)nc3)cc12)c1ccccc1 [Compound 53R, (R)-6-(2-aminopyrimidin-5-yl)-4-((1-phenylethyl)amino)quinoline-3-carbonitrile]	+++ (value is greater than 30 minutes and less than or equal to 60 minutes)	20 to 200 nM	10 to 80%	

Second part, the compound after the results:

½ life minutes (MLM) [1]	IC50 [2]	inhibition at 0.1 µM [2]	DNA-PK % Inh. @ 100 nM ([2]; 100 nM)	Compound
++++ (value is greater than 60 minutes)	< 2 nM	> 90%		C[C@H](Nc1ncnc2ccc(-c3cnc(Cl)c(NS(C)(=O)=O)c3)cc12)c1ccccc1 [Compound 2S, N-(2-chloro-5-(4-((1S-phenylethyl)amino)quinazolin-6-yl)pyridin-3-yl)methanesulfonamide]
++++ (value is greater than 60 minutes)		80 to 90%		C[C@@H](Nc1ncnc2ccc(-c3cnc(Cl)c(NS(C)(=O)=O)c3)cc12)c1ccc(F)cc1 [Compound 111R, N-(2-chloro-5-(4-((1R-(4-fluorophenyl)ethyl)amino)quinazolin-6-yl)pyridin-3-yl)methanesulfonamide]
